Patent US8003785B2 (Takeda Pharmaceutical Company Limited, priority 2008, dated 2011)

Biological target: T1, PLK1 (Homo sapiens, UniProt P53350)
T1 construct: Full-length, active GST-PLK1 is purified from Sf9 insect cells; made in house; host or cells: Sf9 insect cells
Assay: Biochemical Characterization Assay: HTRF kinase assay, GST-PLK1 phosphorylation of GST-p53
Details: GST-PLK1, GST-p53 substrate
Procedure, shortened: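 HTRF read-out of p53 phosphorylation: after EDTA stop, anti-phospho-p53 antibody bound 30 min at 37 °C in HEPES pH 7 buffer, with Eu-anti-rabbit/APC-anti-GST detection. Kinase step used full-length Sf9-expressed GST-PLK1 (3 ug/mL) and E. coli GST-p53 substrate, 35 min at 37 °C.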

T1 sequence (P53350 whole entry): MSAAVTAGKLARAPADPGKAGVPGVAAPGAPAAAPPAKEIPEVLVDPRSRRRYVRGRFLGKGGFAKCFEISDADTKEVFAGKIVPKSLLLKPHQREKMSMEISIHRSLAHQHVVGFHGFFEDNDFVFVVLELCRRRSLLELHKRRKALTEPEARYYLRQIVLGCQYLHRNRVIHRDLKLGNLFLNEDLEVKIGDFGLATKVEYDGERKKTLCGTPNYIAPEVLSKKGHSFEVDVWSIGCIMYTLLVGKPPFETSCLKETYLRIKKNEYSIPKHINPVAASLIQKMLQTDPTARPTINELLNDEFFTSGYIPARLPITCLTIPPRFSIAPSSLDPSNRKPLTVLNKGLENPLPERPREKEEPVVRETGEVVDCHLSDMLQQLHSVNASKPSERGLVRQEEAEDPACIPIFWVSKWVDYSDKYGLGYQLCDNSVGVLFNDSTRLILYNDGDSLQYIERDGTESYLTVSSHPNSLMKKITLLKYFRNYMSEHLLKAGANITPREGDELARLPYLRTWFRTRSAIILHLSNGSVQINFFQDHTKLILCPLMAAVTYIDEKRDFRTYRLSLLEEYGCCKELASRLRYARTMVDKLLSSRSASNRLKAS

Compound	IC50 [nM]
CCc1cc(C(=O)NC)ccc1Nc1ncc2c(n1)N(C1CCCC1)CC(F)(F)C(=O)N2C [Example I-200, 4-(9-cyclopentyl-7,7-difluoro-5-methyl-6-oxo-6,7,8,9-tetrahydro-5H-pyrimido[4,5-b][1,4]diazepin-2-ylamino)-3-ethyl-N-methyl-benzamide]	1 to 50
CCc1cc(C(=O)NC2CCN(C(=O)OC(C)(C)C)CC2)ccc1Nc1ncc2c(n1)N(C1CCCC1)CC(F)(F)C(=O)N2C [Example I-201, 4-[4-(9-cyclopentyl-7,7-difluoro-5-methyl-6-oxo-6,7,8,9-tetrahydro-5H-pyrimido[4,5-b][1,4]diazepin-2-ylamino)-3-ethyl-benzoylamino]-piperidine-1-carboxylic acid tert-butyl ester]	51 to 500
CCc1cc(C(=O)NC2CCNCC2)ccc1Nc1ncc2c(n1)N(C1CCCC1)CC(F)(F)C(=O)N2C [Example I-202, 4-(9-cyclopentyl-7,7-difluoro-5-methyl-6-oxo-6,7,8,9-tetrahydro-5H-pyrimido[4,5-b][1,4]diazepin-2-ylamino)-3-ethyl-N-piperidin-4-yl-benzamide]	1 to 50
CCc1cc(C(N)=O)ccc1Nc1ncc2c(n1)N(C1CCCC1)CC(F)(F)C(=O)N2C [Example I-203]	1 to 50
CCN1CCC(NC(=O)c2ccc(Nc3ncc4c(n3)N(C3CCCC3)CC(F)(F)C(=O)N4C)c(C(F)(F)F)c2)CC1 [Example I-206, 4-(9-cyclopentyl-7,7-difluoro-5-methyl-6-oxo-6,7,8,9-tetrahydro-5H-pyrimido[4,5-b][1,4]diazepin-2-ylamino)-N-(1-ethyl-piperidin-4-yl)-3-trifluoromethyl-benzamide]	1 to 50
CN1C(=O)C(F)(F)CN(C2CCCC2)c2nc(Nc3ccc(C(=O)NC4CCOCC4)cc3C(F)(F)F)ncc21 [Example I-207, 4-(9-cyclopentyl-7,7-difluoro-5-methyl-6-oxo-6,7,8,9-tetrahydro-5H-pyrimido[4,5-b][1,4]diazepin-2-ylamino)-N-(tetrahydro-pyran-4-yl)-3-trifluoromethyl-benzamide]	51 to 500
CN(C)CCNC(=O)c1ccc(Nc2ncc3c(n2)N(C2CCCC2)CC(F)(F)C(=O)N3C)c(C(F)(F)F)c1 [Example I-208, 4-(9-cyclopentyl-7,7-difluoro-5-methyl-6-oxo-6,7,8,9-tetrahydro-5H-pyrimido[4,5-b][1,4]diazepin-2-ylamino)-N-(2-dimethylamino-ethyl)-3-trifluoromethyl-benzamide]	51 to 500
CN(C)CCCNC(=O)c1ccc(Nc2ncc3c(n2)N(C2CCCC2)CC(F)(F)C(=O)N3C)c(C(F)(F)F)c1 [Example I-209, 4-(9-cyclopentyl-7,7-difluoro-5-methyl-6-oxo-6,7,8,9-tetrahydro-5H-pyrimido[4,5-b][1,4]diazepin-2-ylamino)-N-(3-dimethylamino-propyl)-3-trifluoromethyl-benzamide]	1 to 50
CNC(=O)c1ccc(Nc2ncc3c(n2)N(C2CCCC2)CC(F)(F)C(=O)N3C)c(C(F)(F)F)c1 [Example I-210, 4-(9-cyclopentyl-7,7-difluoro-5-methyl-6-oxo-6,7,8,9-tetrahydro-5H-pyrimido[4,5-b][1,4]diazepin-2-ylamino)-N-methyl-3-trifluoromethyl-benzamide]	51 to 500
CN1C(=O)C(F)(F)CN(C2CCCC2)c2nc(Nc3ccc(C(=O)NC4CCN(C(=O)OC(C)(C)C)CC4)cc3C(F)(F)F)ncc21 [Example I-211, 4-[4-(9-cyclopentyl-7,7-difluoro-5-methyl-6-oxo-6,7,8,9-tetrahydro-5H-pyrimido[4,5-b][1,4]diazepin-2-ylamino)-3-trifluoromethyl-benzoylamino]-piperidine-1-carboxylic acid tert-butyl ester]	51 to 500
CN1C(=O)C(F)(F)CN(C2CCCC2)c2nc(Nc3ccc(C(=O)NC4CCNCC4)cc3C(F)(F)F)ncc21 [Example I-212, 4-(9-cyclopentyl-7,7-difluoro-5-methyl-6-oxo-6,7,8,9-tetrahydro-5H-pyrimido[4,5-b][1,4]diazepin-2-ylamino)-N-piperidin-4-yl-3-trifluoromethyl-benzamide]	1 to 50
CN1C(=O)C(F)(F)CN(C2CCCC2)c2nc(Nc3ccc(C(N)=O)cc3C(F)(F)F)ncc21 [Example I-213, 4-(9-cyclopentyl-7,7-difluoro-5-methyl-6-oxo-6,7,8,9-tetrahydro-5H-pyrimido[4,5-b][1,4]diazepin-2-ylamino)-3-trifluoromethyl-benzamide]	51 to 500
CCOc1cc(C(=O)NC2CCN(C)CC2)ccc1Nc1ncc2c(n1)N(C1CCCC1)CC(F)(F)C(=O)N2C [Example I-215, 4-(9-cyclopentyl-7,7-difluoro-5-methyl-6-oxo-6,7,8,9-tetrahydro-5H-pyrimido[4,5-b][1,4]diazepin-2-ylamino)-3-ethoxy-N-(1-methyl-piperidin-4-yl)-benzamide]	1 to 50
CCOc1cc(C(=O)NC2CCN(CC)CC2)ccc1Nc1ncc2c(n1)N(C1CCCC1)CC(F)(F)C(=O)N2C [Example I-216, 4-(9-cyclopentyl-7,7-difluoro-5-methyl-6-oxo-6,7,8,9-tetrahydro-5H-pyrimido[4,5-b][1,4]diazepin-2-ylamino)-3-ethoxy-N-(1-ethyl-piperidin-4-yl)-benzamide]	1 to 50
CCOc1cc(C(=O)NC2CCOCC2)ccc1Nc1ncc2c(n1)N(C1CCCC1)CC(F)(F)C(=O)N2C [Example I-217, 4-(9-cyclopentyl-7,7-difluoro-5-methyl-6-oxo-6,7,8,9-tetrahydro-5H-pyrimido[4,5-b][1,4]diazepin-2-ylamino)-3-ethoxy-N-(tetrahydro-pyran-4-yl)-benzamide]	1 to 50

The remaining lines, values ahead:

IC50 [nM]	Compound
1 to 50	Cc1cc(C(=O)NCCN(C)C)ccc1Nc1ncc2c(n1)N(C1CCCC1)CC(F)(F)C(=O)N2C [Example I-188, 4-(9-cyclopentyl-7,7-difluoro-5-methyl-6-oxo-6,7,8,9-tetrahydro-5H-pyrimido[4,5-b][1,4]diazepin-2-ylamino)-N-(2-dimethylamino-ethyl)-3-methyl-benzamide]
1 to 50	Cc1cc(C(=O)NCCCN(C)C)ccc1Nc1ncc2c(n1)N(C1CCCC1)CC(F)(F)C(=O)N2C [Example I-189, 4-(9-cyclopentyl-7,7-difluoro-5-methyl-6-oxo-6,7,8,9-tetrahydro-5H-pyrimido[4,5-b][1,4]diazepin-2-ylamino)-N-(3-dimethylamino-propyl)-3-methyl-benzamide]
1 to 50	CNC(=O)c1ccc(Nc2ncc3c(n2)N(C2CCCC2)CC(F)(F)C(=O)N3C)c(C)c1 [Example I-190, 4-(9-cyclopentyl-7,7-difluoro-5-methyl-6-oxo-6,7,8,9-tetrahydro-5H-pyrimido[4,5-b][1,4]diazepin-2-ylamino)-3,N-dimethyl-benzamide]
1 to 50	Cc1cc(C(=O)NC2CCN(C(=O)OC(C)(C)C)CC2)ccc1Nc1ncc2c(n1)N(C1CCCC1)CC(F)(F)C(=O)N2C [Example I-191, 4-[4-(9-cyclopentyl-7,7-difluoro-5-methyl-6-oxo-6,7,8,9-tetrahydro-5H-pyrimido[4,5-b][1,4]diazepin-2-ylamino)-3-methyl-benzoylamino]-piperidine-1-carboxylic acid tert-butyl ester]
1 to 50	Cc1cc(C(=O)NC2CCNCC2)ccc1Nc1ncc2c(n1)N(C1CCCC1)CC(F)(F)C(=O)N2C [Example I-192, 4-(9-cyclopentyl-7,7-difluoro-5-methyl-6-oxo-6,7,8,9-tetrahydro-5H-pyrimido[4,5-b][1,4]diazepin-2-ylamino)-3-methyl-N-piperidin-4-yl-benzamide]
1 to 50	Cc1cc(C(N)=O)ccc1Nc1ncc2c(n1)N(C1CCCC1)CC(F)(F)C(=O)N2C [Example I-193, 4-(9-cyclopentyl-7,7-difluoro-5-methyl-6-oxo-6,7,8,9-tetrahydro-5H-pyrimido[4,5-b][1,4]diazepin-2-ylamino)-3-methyl-benzamide]
1 to 50	CCc1cc(C(=O)NC2CCN(C)CC2)ccc1Nc1ncc2c(n1)N(C1CCCC1)CC(F)(F)C(=O)N2C [Example I-195, 4-(9-cyclopentyl-7,7-difluoro-5-methyl-6-oxo-6,7,8,9-tetrahydro-5H-pyrimido[4,5-b][1,4]diazepin-2-ylamino)-3-ethyl-N-(1-methyl-piperidin-4-yl)-benzamide]
1 to 50	CCc1cc(C(=O)NC2CCN(CC)CC2)ccc1Nc1ncc2c(n1)N(C1CCCC1)CC(F)(F)C(=O)N2C [Example I-196, 4-(9-cyclopentyl-7,7-difluoro-5-methyl-6-oxo-6,7,8,9-tetrahydro-5H-pyrimido[4,5-b][1,4]diazepin-2-ylamino)-3-ethyl-N-(1-ethyl-piperidin-4-yl)-benzamide]
1 to 50	CCc1cc(C(=O)NC2CCOCC2)ccc1Nc1ncc2c(n1)N(C1CCCC1)CC(F)(F)C(=O)N2C [Example I-197, 4-(9-cyclopentyl-7,7-difluoro-5-methyl-6-oxo-6,7,8,9-tetrahydro-5H-pyrimido[4,5-b][1,4]diazepin-2-ylamino)-3-ethyl-N-(tetrahydro-pyran-4-yl)-benzamide]
1 to 50	CCc1cc(C(=O)NCCN(C)C)ccc1Nc1ncc2c(n1)N(C1CCCC1)CC(F)(F)C(=O)N2C [Example I-198, 4-(9-cyclopentyl-7,7-difluoro-5-methyl-6-oxo-6,7,8,9-tetrahydro-5H-pyrimido[4,5-b][1,4]diazepin-2-ylamino)-N-(2-dimethylamino-ethyl)-3-ethyl-benzamide]
1 to 50	CCc1cc(C(=O)NCCCN(C)C)ccc1Nc1ncc2c(n1)N(C1CCCC1)CC(F)(F)C(=O)N2C [Example I-199, 4-(9-cyclopentyl-7,7-difluoro-5-methyl-6-oxo-6,7,8,9-tetrahydro-5H-pyrimido[4,5-b][1,4]diazepin-2-ylamino)-N-(3-dimethylamino-propyl)-3-ethyl-benzamide]
